Measured values: PubChem BioAssay AID248 (DTP/NCI, 2004)
Where “and” joins values, the source holds several entries; their conditions need not be identical. Equal entries are not always repeated. Inconclusive results and toxic doses are left out.

Test system: L1210 leukemia ip in BDF1 mice, survival T/C
Assay: NCI In Vivo Anticancer Drug Screen. Data for tumor model L1210 Leukemia (intraperitoneal) in B6D2F1 (BDF1) mice
Settings: higher = longer survival
Outline: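 Ratio derived from survival: compound-dosed mice over vehicle-dosed mice, all bearing a transplantable tumor.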

[1] = endpoint: mean survival time, dose: 100.0 mg/kg/injection, schedule: Q01DX001 (ip), vehicle: saline
[2] = endpoint: mean survival time, dose: 200.0 mg/kg/injection, schedule: Q01DX001 (ip), vehicle: saline
[3] = endpoint: mean survival time, dose: 400.0 mg/kg/injection, schedule: Q01DX001 (ip), vehicle: saline
[4] = endpoint: mean survival time, dose: 100.0 mg/kg/injection, schedule: Q01DX009 (ip), vehicle: Klucel (hydroxypropylcellulose) (HPC)
[5] = endpoint: mean survival time, dose: 100.0 mg/kg/injection, schedule: Q04DX003 (ip), vehicle: Klucel (hydroxypropylcellulose) (HPC)
[6] = endpoint: mean survival time, dose: 200.0 mg/kg/injection, schedule: Q01DX009 (ip), vehicle: Klucel (hydroxypropylcellulose) (HPC)
[7] = endpoint: mean survival time, dose: 200.0 mg/kg/injection, schedule: Q04DX003 (ip), vehicle: Klucel (hydroxypropylcellulose) (HPC)
[8] = endpoint: mean survival time, dose: 400.0 mg/kg/injection, schedule: Q01DX009 (ip), vehicle: Klucel (hydroxypropylcellulose) (HPC)
[9] = endpoint: mean survival time, dose: 400.0 mg/kg/injection, schedule: Q04DX003 (ip), vehicle: Klucel (hydroxypropylcellulose) (HPC)

CCCCn1cnc2c(=S)nc(N)[nH]c21
T/C (endpoint: mean survival time, dose: 3.3 mg/kg/injection, schedule: Q01DX Z (ip), vehicle: methylcellulose (MC)): 115 % of control
T/C (endpoint: mean survival time, dose: 5.0 mg/kg/injection, schedule: Q01DX Z (ip), vehicle: methylcellulose (MC)): 118 % of control
T/C (endpoint: mean survival time, dose: 19.0 mg/kg/injection, schedule: Q04DX003 (ip), vehicle: saline with Tween-80): 111 % of control
T/C (endpoint: mean survival time, dose: 66.0 mg/kg/injection, schedule: Q04DX003 (ip), vehicle: saline with Tween-80): 164 % of control

Nc1cccc(OCCOc2ccc([N+](=O)[O-])cc2)c1
T/C [1]: 102 % of control
T/C [2]: 104 % of control
T/C [3]: 100 % of control

Cn1ncn(/N=C/c2ccc([N+](=O)[O-])o2)c1=O
T/C (endpoint: mean survival time, dose: 12.5 mg/kg/injection, schedule: Q01DX009 (ip), vehicle: other): 91 % of control
T/C (endpoint: mean survival time, dose: 25.0 mg/kg/injection, schedule: Q01DX009 (ip), vehicle: other): 93 % of control
T/C (endpoint: mean survival time, dose: 50.0 mg/kg/injection, schedule: Q01DX009 (ip), vehicle: other): 91 % of control
T/C (endpoint: mean survival time, dose: 100.0 mg/kg/injection, schedule: Q01DX009 (ip), vehicle: other): 87 % of control
T/C (endpoint: mean survival time, dose: 200.0 mg/kg/injection, schedule: Q01DX009 (ip), vehicle: other): 87 % of control

NS(=O)(=O)c1cc2c(cc1Cl)NCNS2(=O)=O
T/C (endpoint: median survival time, dose: 125.0 mg/kg/injection, schedule: Q12HX016 (oral), vehicle: Klucel (hydroxypropylcellulose) (HPC)): 95 % of control
T/C (endpoint: median survival time, dose: 125.0 mg/kg/injection, schedule: Q12HX022 (oral), vehicle: Klucel (hydroxypropylcellulose) (HPC)): 94 % of control
T/C (endpoint: median survival time, dose: 250.0 mg/kg/injection, schedule: Q12HX016 (oral), vehicle: Klucel (hydroxypropylcellulose) (HPC)): 93 % of control
T/C (endpoint: median survival time, dose: 250.0 mg/kg/injection, schedule: Q12HX022 (oral), vehicle: Klucel (hydroxypropylcellulose) (HPC)): 98 % of control
T/C (endpoint: median survival time, dose: 500.0 mg/kg/injection, schedule: Q12HX016 (oral), vehicle: Klucel (hydroxypropylcellulose) (HPC)): 93 % of control
T/C (endpoint: median survival time, dose: 500.0 mg/kg/injection, schedule: Q12HX022 (oral), vehicle: Klucel (hydroxypropylcellulose) (HPC)): 98 % of control

Cc1ccc(NC(=S)NC(=O)c2ccco2)cc1Cl
T/C [4]: 101 % of control
T/C [5]: 102 % of control
T/C [6]: 106 % of control
T/C [7]: 98 % of control
T/C [8]: 102 % of control
T/C [9]: 98 % of control

CCCCCCCCOC(=O)CC
T/C (endpoint: mean survival time, dose: 100.0 mg/kg/injection, schedule: Q04DX002 (ip), vehicle: saline): 111 % of control
T/C (endpoint: mean survival time, dose: 200.0 mg/kg/injection, schedule: Q04DX002 (ip), vehicle: saline): 107 % of control
T/C (endpoint: mean survival time, dose: 400.0 mg/kg/injection, schedule: Q04DX002 (ip), vehicle: saline): 100 % of control

Cc1nc(N(C)C)nc(C)c1C#[N+][O-]
T/C (endpoint: mean survival time, dose: 100.0 mg/kg/injection, schedule: Q01DX001 (ip), vehicle: carboxymethylcellulose (CMC)): 94 % of control

O=C(CCN1CCCCCCC1)c1cccc([N+](=O)[O-])c1
T/C (endpoint: mean survival time, dose: 25.0 mg/kg/injection, schedule: Q04DX003 (ip), vehicle: saline): 97 % of control
T/C (endpoint: mean survival time, dose: 50.0 mg/kg/injection, schedule: Q01DX009 (ip), vehicle: saline): 101 % of control
T/C (endpoint: mean survival time, dose: 50.0 mg/kg/injection, schedule: Q04DX003 (ip), vehicle: saline): 104 % of control
T/C (endpoint: mean survival time, dose: 100.0 mg/kg/injection, schedule: Q01DX009 (ip), vehicle: saline): 91 % of control
T/C (endpoint: mean survival time, dose: 100.0 mg/kg/injection, schedule: Q04DX003 (ip), vehicle: saline): 97 % of control and 105 % of control

CC(=O)Nc1ccc(S(=O)(=O)C2=CC(=O)c3ccccc3C2=O)cc1
T/C [1]: 95 % of control

Cc1ccc([N+](=O)[O-])cc1NC(=O)NCCc1ccccc1
T/C [4]: 97 % of control
T/C [6]: 87 % of control
T/C [8]: 92 % of control

Cc1cccc(C(Cc2ccc(N3C(N)=NC(N)=NC3(C)C)cc2)C(=O)Nc2ccc(S(=O)(=O)F)cc2)c1 (configuration not stated)
T/C [1]: 108 % of control
T/C [2]: 110 % of control
T/C [3]: 98 % of control

CN(C)C(=O)Oc1c(Cl)cccc1Cl
T/C [4]: 92 % of control
T/C [5]: 97 % of control
T/C [6]: 97 % of control
T/C [7]: 96 % of control
T/C [9]: 89 % of control

CC(C(O)c1cc(=O)n(C)c2ccccc12)[N+](=O)[O-] (configuration not stated)
T/C (endpoint: mean survival time, dose: 100.0 mg/kg/injection, schedule: Q01DX001 (ip), vehicle: other): 95 % of control
T/C (endpoint: mean survival time, dose: 200.0 mg/kg/injection, schedule: Q01DX001 (ip), vehicle: other): 110 % of control
T/C (endpoint: mean survival time, dose: 400.0 mg/kg/injection, schedule: Q01DX001 (ip), vehicle: other): 101 % of control

Cc1ccc([N+](=O)[O-])c(OC(=O)Nc2ccccc2Cl)c1
T/C [4]: 105 % of control
T/C [5]: 100 % of control
T/C [6]: 100 % of control
T/C [7]: 97 % of control
T/C [8]: 107 % of control
T/C [9]: 100 % of control

Cc1c2c(nn1-c1ccccn1)C(=O)C=C(Nc1ccccc1)C2=O
T/C (endpoint: mean survival time, dose: 12.5 mg/kg/injection, schedule: Q04DX002 (ip), vehicle: Klucel (hydroxypropylcellulose) (HPC)): 92 % of control
T/C (endpoint: mean survival time, dose: 25.0 mg/kg/injection, schedule: Q04DX002 (ip), vehicle: Klucel (hydroxypropylcellulose) (HPC)): 96 % of control
T/C (endpoint: mean survival time, dose: 50.0 mg/kg/injection, schedule: Q04DX002 (ip), vehicle: Klucel (hydroxypropylcellulose) (HPC)): 92 % of control
T/C (endpoint: mean survival time, dose: 400.0 mg/kg/injection, schedule: Q04DX002 (ip), vehicle: Klucel (hydroxypropylcellulose) (HPC)): 90 % of control

O=c1[nH]c(=O)c2ccccc2c2ccccc12
T/C (endpoint: mean survival time, dose: 100.0 mg/kg/injection, schedule: Q01DX009 (ip), vehicle: saline with Tween-80): 99 % of control
T/C (endpoint: mean survival time, dose: 100.0 mg/kg/injection, schedule: Q04DX003 (ip), vehicle: saline with Tween-80): 102 % of control
T/C (endpoint: mean survival time, dose: 200.0 mg/kg/injection, schedule: Q01DX009 (ip), vehicle: saline with Tween-80): 86 % of control
T/C (endpoint: mean survival time, dose: 200.0 mg/kg/injection, schedule: Q04DX003 (ip), vehicle: saline with Tween-80): 107 % of control
T/C (endpoint: mean survival time, dose: 400.0 mg/kg/injection, schedule: Q01DX009 (ip), vehicle: saline with Tween-80): 93 % of control
T/C (endpoint: mean survival time, dose: 400.0 mg/kg/injection, schedule: Q04DX003 (ip), vehicle: saline with Tween-80): 102 % of control

O=C(O)C1C(C(=O)O)C2(c3ccccc3)C(=O)C1(c1ccccc1)C(c1ccccc1)=C2c1ccccc1 (configuration not stated)
T/C (endpoint: mean survival time, dose: 100.0 mg/kg/injection, schedule: Q01DX001 (ip), vehicle: saline with Tween-80): 89 % of control
T/C (endpoint: mean survival time, dose: 200.0 mg/kg/injection, schedule: Q01DX001 (ip), vehicle: saline with Tween-80): 110 % of control
T/C (endpoint: mean survival time, dose: 400.0 mg/kg/injection, schedule: Q01DX001 (ip), vehicle: saline with Tween-80): 100 % of control

Cc1c2oc3c(C)ccc(C(=O)NCCN4CCN(c5ccccc5)CC4)c3nc-2c(C(=O)NCCN2CCN(c3ccccc3)CC2)c(N)c1=O
T/C (endpoint: mean survival time, dose: 100.0 mg/kg/injection, schedule: Q04DX002 (ip), vehicle: saline with Tween-80): 92 % of control
T/C (endpoint: mean survival time, dose: 200.0 mg/kg/injection, schedule: Q04DX002 (ip), vehicle: saline with Tween-80): 95 % of control
T/C (endpoint: mean survival time, dose: 400.0 mg/kg/injection, schedule: Q04DX002 (ip), vehicle: saline with Tween-80): 95 % of control

CC1CCC(C(C)C)C(NCCO)C1 (configuration not stated)
T/C (endpoint: mean survival time, dose: 18.8 mg/kg/injection, schedule: Q04DX003 (ip), vehicle: saline): 102 % of control
T/C (endpoint: mean survival time, dose: 37.5 mg/kg/injection, schedule: Q04DX003 (ip), vehicle: saline): 100 % of control
T/C (endpoint: mean survival time, dose: 75.0 mg/kg/injection, schedule: Q01DX001 (ip), vehicle: saline): 103 % of control
T/C (endpoint: mean survival time, dose: 75.0 mg/kg/injection, schedule: Q04DX003 (ip), vehicle: saline): 100 % of control

CCCCCCCCCCCC(=O)Nc1cc(Cl)c(OC)cc1OC
T/C [4]: 95 % of control
T/C [6]: 92 % of control
T/C [8]: 93 % of control
